In US9700545B2 (Salix Pharmaceuticals, Ltd, priority 2008, dated 2017):

Tests used:
Assay type in all cases: physicochemical
[1] = Automated moisture sorption/desorption (MB / DVS); details: for XRPD following DVS: line after DVS; for hygroscopicity: result in words; for form by XRPD after moisture sorption/desorption: sorption from 5% RH to 95% RH, desorption from 95% RH to 5% RH
Procedure: Based on the data, relative humidity stressing studies of the two amorphous materials at 40° C./75% RH are recommended. Moisture sorption/desorption data were collected on a VTI SGA-100 Vapor Sorption Analyzer. Sorption and desorption data were collected over a range of 5% to 95% relative humidity (RH) at 10% RH intervals under a nitrogen purge. Samples were not dried prior to analysis. Equilibrium criteria used for analysis were less than 0.0100% weight change in 5 minutes, with a maximum equilibration time of 3 hours if the weight criterion was not met. Data were not corrected for the initial moisture content of the samples. NaCl and PVP were used as calibration standards.

[2] = Vapor stress / vapor diffusion stressing of amorphous materials, form by XRPD; details: methanol and tetrahydrofuran, both with water as antisolvent
Procedure: (§1) Vapor stressing experiments were done on amorphous material from two preparations: lyophilization from p-dioxane:water 1:1 and crash precipitation from ethyl acetate with heptane. […] The majority of the stressed samples appeared as clear red solutions after 6 days. Those solutions were placed in vials of antisolvent for vapor diffusion. Dry and wet milling experiments were conducted on amorphous materials from the two preparations mentioned above. Amorphous materials were recovered from the dry milling experiments.

[3] = Milling experiments on amorphous materials, form by XRPD; details: 10 min. at 30 Hz, scraped sides
Procedure: as §1
A solid sample of rifaximin was charged to a milling container with a milling ball. […] Solids were scraped from the sides of the vial after each interval.

Compound	wt loss upon equilibration at 5% RH ([1]; MB, Table 5, milled amorphous)	XRPD following DVS ([1]; Table 2, first sample block (lyophilization sample))	XRPD following DVS ([1]; Table 2, second sample block (crash precipitation sample))	weight gain under 95% RH ([1]; amorphous rifaximin made by milling, moisture balance)	hygroscopicity [1]	form by XRPD after moisture sorption/desorption [1]	form by XRPD after moisture sorption/desorption ([1]; listed as Amorphous)	form by XRPD after moisture sorption/desorption ([1]; listed as Rifaximin Amorphous)	form obtained in vapor diffusion experiments [2]	XRPD Result after dry milling [3]
CO[C@H]1/C=C/O[C@@]2(C)Oc3c(C)c(O)c4c(O)c(c5c(nc6cc(C)ccn65)c4c3C2=O)NC(=O)/C(C)=C\C=C\[C@H](C)[C@H](O)[C@@H](C)[C@@H](O)[C@@H](C)[C@H](OC(C)=O)[C@@H]1C [Amorphous rifaximin]	0.7% wt loss upon equilibration	no peaks, possibly amorphous	no peaks, possibly amorphous	11.6%	hygroscopic	amorphous	amorphous	amorphous	Form β	
CO[C@H]1/C=C/O[C@@]2(C)Oc3c(C)c(O)c4c(O)c(c5c(nc6cc(C)ccn65)c4c3C2=O)NC(=O)/C(C)=C\C=C\[C@H](C)[C@H](O)[C@@H](C)[C@@H](O)[C@@H](C)[C@H](OC(C)=O)[C@@H]1C [crash amorphous rifaximin]					moderately hygroscopic	Crystallization was not observed				amorphous
CO[C@H]1/C=C/O[C@@]2(C)Oc3c(C)c(O)c4c(O)c(c5c(nc6cc(C)ccn65)c4c3C2=O)NC(=O)/C(C)=C\C=C\[C@H](C)[C@H](O)[C@@H](C)[C@@H](O)[C@@H](C)[C@H](OC(C)=O)[C@@H]1C [lyophilized amorphous rifaximin]					moderately hygroscopic	Crystallization was not observed				amorphous
CO[C@H]1/C=C/O[C@@]2(C)Oc3c(C)c(O)c4c(O)c(c5c(nc6cc(C)ccn65)c4c3C2=O)NC(=O)/C(C)=C\C=C\[C@H](C)[C@H](O)[C@@H](C)[C@@H](O)[C@@H](C)[C@H](OC(C)=O)[C@@H]1C [α dry]						α dry				
